According to the supplement of paper PMC10307832:

Key:
Experiment in all cases: relative viability (nuclei count vs DMSO), 5 days (fraction); higher = more cells survive
DM3189 + Bortezomib = compound: C1CN(CCN1)C2=CC=C(C=C2)C3=CN4C(=C(C=N4)C5=CC=NC6=CC=CC=C56)N=C3 [DM3189] + CC(C)C[C@H](NC(=O)[C@H](Cc1ccccc1)NC(=O)c1cnccn1)B(O)O [Bortezomib] (partner 0.002 µM)
Method in brief: (§1)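 Relative viability equals treated-well nuclei counts divided by vehicle-well nuclei counts. Counts came from 4× images of lung cancer cell lines grown in 1536-well plates for 5 days after pin-tool dosing on the day after seeding. Dosing used one drug alone or a fixed anchor-drug dose plus five library-drug doses (not always all listed) in √10 steps, and values are medians of duplicate plates.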

DM3189 + Linsitinib = compound: C1CN(CCN1)C2=CC=C(C=C2)C3=CN4C(=C(C=N4)C5=CC=NC6=CC=CC=C56)N=C3 [DM3189] + C[C@]1(O)C[C@@H](c2nc(-c3ccc4ccc(-c5ccccc5)nc4c3)c3c(N)nccn32)C1 [Linsitinib] (partner 1 µM)
Method in brief: as §1

DM3189 + Phenformin = compound: C1CN(CCN1)C2=CC=C(C=C2)C3=CN4C(=C(C=N4)C5=CC=NC6=CC=CC=C56)N=C3 [DM3189] + N=C(N)NC(=N)NCCc1ccccc1 [Phenformin] (partner 250 µM)
Method in brief: as §1

DM3189 + AZD7762 = compound: C1CN(CCN1)C2=CC=C(C=C2)C3=CN4C(=C(C=N4)C5=CC=NC6=CC=CC=C56)N=C3 [DM3189] + NC(=O)Nc1cc(-c2cccc(F)c2)sc1C(=O)N[C@H]1CCCNC1 [AZD7762] (partner 0.2 µM)
Method in brief: as §1

DM3189 + Decitabine = compound: C1CN(CCN1)C2=CC=C(C=C2)C3=CN4C(=C(C=N4)C5=CC=NC6=CC=CC=C56)N=C3 [DM3189] + Nc1ncn([C@H]2C[C@H](O)[C@@H](CO)O2)c(=O)n1 [Decitabine] (partner 2 µM)
Method in brief: as §1

Row | Cell Line | relative viability (DM3189 + Bortezomib; first compound 0.08 µM) | relative viability (DM3189 + Bortezomib; first compound 0.253 µM) | relative viability (DM3189 + Bortezomib; first compound 0.8 µM) | relative viability (DM3189 + Bortezomib; first compound 2.53 µM) | relative viability (DM3189 + Linsitinib; first compound 0.08 µM) | relative viability (DM3189 + Linsitinib; first compound 0.253 µM) | relative viability (DM3189 + Linsitinib; first compound 0.8 µM) | relative viability (DM3189 + Linsitinib; first compound 2.53 µM) | relative viability (DM3189 + Phenformin; first compound 0.08 µM) | relative viability (DM3189 + Phenformin; first compound 0.253 µM) | relative viability (DM3189 + Phenformin; first compound 0.8 µM) | relative viability (DM3189 + Phenformin; first compound 2.53 µM) | relative viability (DM3189 + AZD7762; first compound 0.08 µM) | relative viability (DM3189 + AZD7762; first compound 0.253 µM) | relative viability (DM3189 + AZD7762; first compound 0.8 µM) | relative viability (DM3189 + AZD7762; first compound 2.53 µM) | relative viability (DM3189 + Decitabine; first compound 0.08 µM) | relative viability (DM3189 + Decitabine; first compound 0.253 µM) | relative viability (DM3189 + Decitabine; first compound 0.8 µM) | relative viability (DM3189 + Decitabine; first compound 2.53 µM)
1 | 201T | 1.15 | 1.07 | 1.05 | 1.09 | 1.07 | 1.03 | 1.01 | 1.08 | 0.482 | 0.429 | 0.388 | 0.431 | 0.717 | 0.639 | 0.611 | 0.537 | 0.831 | 0.817 | 0.828 | 0.875
2 | A549 | – | – | – | – | 0.654 | 0.593 | 0.549 | 0.545 | 0.151 | 0.162 | 0.206 | 0.136 | – | – | – | – | 0.26 | 0.282 | 0.251 | 0.325
3 | A-427 | 1.12 | 0.962 | 0.876 | 0.97 | 1.1 | 1.03 | 1.11 | 1.33 | 0.344 | 0.297 | 0.284 | 0.227 | 0.684 | 0.701 | 0.677 | 0.723 | 0.591 | 0.546 | 0.541 | 0.618
4 | ABC-1 | 0.364 | 0.272 | 0.244 | 0.23 | 0.806 | 0.894 | 0.752 | 0.783 | 0.256 | 0.233 | 0.216 | 0.176 | 0.914 | 0.679 | 0.742 | 1.06 | 1.1 | 1.08 | 1.21 | 1.04
5 | BEN | 0.926 | 0.781 | 0.686 | 0.771 | 0.935 | 0.828 | 0.957 | 0.778 | 0.237 | 0.312 | 0.268 | 0.287 | 0.76 | 0.646 | 0.702 | 0.738 | 0.7 | 0.707 | 0.714 | 0.752
6 | CAL-12T | 1.27 | 0.931 | 0.907 | 0.958 | 0.714 | 0.823 | 0.925 | 0.884 | 0.588 | 0.571 | 0.526 | 0.703 | 0.533 | 0.629 | 0.585 | 0.684 | – | – | – | –
7 | COR-L23 | 0.83 | 1.02 | 0.908 | 0.746 | 0.94 | 1.01 | 0.559 | 0.742 | 0.472 | 0.439 | 0.402 | 0.408 | – | – | – | – | 0.424 | 0.39 | 0.348 | 0.434
8 | COR-L 105 | 1.38 | 0.771 | 0.795 | 0.322 | 0.905 | 1.08 | 0.804 | 1.25 | 0.534 | 0.53 | 0.433 | 0.297 | – | – | – | – | 0.781 | 0.689 | 0.535 | 0.635
9 | ChaGo-K-1 | 1.32 | 0.882 | 1.01 | 0.757 | – | – | – | – | 0.53 | 0.467 | 0.455 | 0.432 | 0.919 | 0.857 | 0.605 | 0.83 | 0.521 | 0.507 | 0.475 | 0.537
10 | EKVX | 1.1 | 1.01 | 1.04 | 1.2 | 0.896 | 1 | 0.717 | 0.993 | 0.251 | 0.224 | 0.218 | 0.242 | 0.809 | – | 0.623 | 0.638 | 0.331 | – | 0.359 | 0.363
11 | EMC-BAC-2 | 1.12 | 1.01 | 0.956 | 1.1 | 0.848 | 0.8 | 0.82 | 0.827 | 0.554 | 0.495 | 0.456 | 0.436 | 1.26 | 1.03 | 0.976 | 1.05 | 0.954 | 0.968 | 0.909 | 1.01
12 | EPLC-272H | 1.07 | 0.86 | 0.868 | 0.831 | 1.24 | 1.3 | 1.16 | 1.29 | 0.284 | 0.293 | 0.25 | 0.276 | 0.174 | 0.219 | 0.276 | 0.186 | 0.374 | 0.359 | 0.364 | 0.424
13 | H3255 | 1.46 | 0.812 | 0.708 | 0.801 | 0.951 | 0.982 | 0.846 | 0.994 | 0.305 | 0.422 | 0.338 | 0.376 | 1.14 | 0.883 | 0.88 | 0.943 | 0.718 | 0.748 | 0.473 | 0.71
14 | HARA | 1.28 | 1.11 | 1.04 | 1.2 | 1.2 | 0.853 | 0.997 | 1.31 | 0.515 | 0.42 | 0.391 | 0.568 | 0.263 | 0.364 | 0.161 | 0.302 | 0.523 | 0.574 | 0.531 | 0.555
15 | HCC-15 | 1.11 | 1 | 0.978 | 0.862 | 0.873 | 0.821 | 0.857 | 0.715 | 0.555 | 0.437 | 0.41 | 0.435 | 1.19 | 1.14 | 1.08 | 1.24 | 0.648 | 0.674 | 0.571 | 0.534
16 | HCC-44 | 0.975 | 0.905 | 0.781 | 0.995 | 0.711 | 0.724 | 0.56 | 0.733 | 0.218 | 0.155 | 0.178 | 0.153 | 0.984 | 1.03 | 0.92 | 0.996 | 0.941 | 0.904 | 0.821 | 0.934
17 | HCC-78 | 0.486 | 0.571 | 0.403 | 0.571 | 0.515 | 0.465 | – | 0.474 | 0.713 | 0.754 | 0.724 | 0.605 | 0.644 | 0.546 | 0.497 | 0.531 | 0.723 | 0.644 | 0.632 | 0.625
